Measured values reported in patent publication US5130320A, “Glycosidase inhibiting 1,3-dideoxy-3-fluoronojirimycin” (Monsanto Company, priority 1991, dated 1992).

Key:
Assay type in all cases: biochemical
yeast α-glucosidase = molecular target: T1, yeast α-glucosidase (Saccharomyces cerevisiae, UniProt P53341); assay: α-Glucosidase inhibition assay, pH 7.4; settings: read-out: ALPHA GLUCOSIDASE inhibition; for inhibition at 1000 µM: @ 1 mM; for inhibition at 5000 µM: @ 5 mM
T1 construct: purchased Sigma
Procedure: (§1) The glycosidase inhibition activity is determined by modifying an assay procedure described in Evans et al, Phytochemistry, 22, pp. 768-770 (1983). More particularly, yeast α-glucosidase and almond β-glucosidase activities were measured by the Evans et al method which was modified by assaying activities at pH 7.4 in N-2-hydroxyethylpiperazine-N-2-ethane sulfonic acid (HEPES) buffer, measuring in 96 well microtiter plates, and including 10% DMSO in control and test samples.
(§2) The release of p-nitrophenol from the substrate p-nitrophenylglycoside was measured spectrophotometrically in the presence and absence of test compound. Each assay included a known inhibitor of the enzyme as a standard. IC50 values were determined for compounds which inhibited the enzymes more than 50% at a 1 millimolar concentration.
To 100 ul 50 mM HEPES buffer, pH 7.4, in a microtiter plate, 20 ul test compound in DMSO (DMSO alone in control)and 40 ul (0.013 units) yeast α-glucosidase (Sigma) in HEPES buffer were added and pre-incubated at room temperature 15 minutes. 40 ul 1.25 mM p-nitrophenyl-α-D-gl-ucopyranoside (Sigma) in HEPES buffer, as substrate was added and the absorbance change at 405 nm was monitored in a Biotek EIA Autoreader. Absorption change was measured at 15 to 25 minutes (reaction was linear for at least 30 minutes). Each sample was tested in triplicate. IC50 values were determined from the linear portion of the log concentration vs percent inhibition curve obtained from a minimum of 3 points. Deoxynojirimycin was used as standard inhibitor.

almond β-glucosidase [1] = assay: β-Glucosidase inhibition assay, pH 4.8
Procedure: as §1, §2
To 100 ul 50 mM sodium citrate buffer, pH 4.8, in a microtiter plate, 20 ul test compound in DMSO (DMSO alone in control) and 20 ul (0.017 units) β-glucosidase (Sigma) in citrate buffer were added and pre-incubated at room temperature 15 minutes. 20 ul 2.50 mM p-nitrophenyl-β-D-glucopyranside in citrate buffer was added as substrate and incubated at room temperature minutes (reaction is linear for at least 30 minutes). 50 ul 0.4 M NaOH was added and the absorption change at 405 nm was determined utilizing a Biotek EIA Autoreader. Each sample was tested in triplicate. IC50 values were determined from the linear portion of the log concentration vs percent inhibition curve obtained from a minimum of 3 points. Castanospermine was used as standard inhibitor.

almond β-glucosidase [2] = assay: β-Glucosidase inhibition assay, pH 7.4
Procedure: as §1, §2
To 100 ul 50 mM HEPES buffer, pH 7.4, in a microtiter plate, 20 ul test compound in DMSO (DMSO alone in control) and 40 ul (0.136 units) β-glucosidase (Sigma) in HEPES buffer were added and pre-incubated at room temperature 15 minutes. 40 ul 1.25 mM p-nitrophenyl-β-D-glucopyranoside in HEPES buffer was added as substrate and the absorbance change at 405 nm was monitored utilizing a Biotek EIA Autoreader. Absorption change was measured at 15 to 25 minutes (reaction is linear for at least 30 minutes). Each sample was tested in triplicate. IC50 values were determined from the linear portion of the log concentration vs percent inhibition curve obtained from a minimum of 3 points. Castanospermine was used as standard inhibitor.

ALPHA MANNOSIDASE [3] = molecular target: T2, ALPHA MANNOSIDASE (Canavalia ensiformis, UniProt C0HJB3); assay: Alpha mannosidase inhibition, pH 4.5; settings: for inhibition at 1000 µM: @ 1 mM; for inhibition at 5000 µM: @ 5 mM
T2 sequence (C0HJB3 1-981): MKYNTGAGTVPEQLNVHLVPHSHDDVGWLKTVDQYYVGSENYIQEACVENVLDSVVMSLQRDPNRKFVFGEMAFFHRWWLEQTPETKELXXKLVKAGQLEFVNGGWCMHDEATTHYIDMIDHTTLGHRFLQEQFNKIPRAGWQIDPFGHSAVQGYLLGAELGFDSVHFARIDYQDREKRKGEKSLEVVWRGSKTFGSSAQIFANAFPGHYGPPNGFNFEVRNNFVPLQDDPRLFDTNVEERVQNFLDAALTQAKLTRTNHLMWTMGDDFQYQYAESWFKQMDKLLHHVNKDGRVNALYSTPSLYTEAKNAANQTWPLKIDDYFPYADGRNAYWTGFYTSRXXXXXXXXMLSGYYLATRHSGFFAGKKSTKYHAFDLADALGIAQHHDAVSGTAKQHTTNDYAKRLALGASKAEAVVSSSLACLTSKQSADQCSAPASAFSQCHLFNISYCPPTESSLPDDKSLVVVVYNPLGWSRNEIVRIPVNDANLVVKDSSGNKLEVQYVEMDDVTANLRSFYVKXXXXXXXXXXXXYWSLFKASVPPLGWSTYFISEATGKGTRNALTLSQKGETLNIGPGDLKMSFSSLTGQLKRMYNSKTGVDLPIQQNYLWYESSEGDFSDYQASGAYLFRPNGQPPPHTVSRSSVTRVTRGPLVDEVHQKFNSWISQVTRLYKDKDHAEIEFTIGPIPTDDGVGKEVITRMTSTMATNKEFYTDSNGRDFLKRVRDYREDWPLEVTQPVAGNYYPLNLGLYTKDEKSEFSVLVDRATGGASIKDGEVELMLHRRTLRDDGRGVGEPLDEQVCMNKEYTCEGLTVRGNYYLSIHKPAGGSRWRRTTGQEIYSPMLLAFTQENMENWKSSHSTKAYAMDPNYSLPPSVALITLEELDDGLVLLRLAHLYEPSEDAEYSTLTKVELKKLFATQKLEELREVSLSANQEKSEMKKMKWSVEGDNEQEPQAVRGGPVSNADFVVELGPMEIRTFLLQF

ALPHA MANNOSIDASE [4] = molecular target: T2, ALPHA MANNOSIDASE; assay: Alpha mannosidase inhibition, pH 7.4; settings: for inhibition at 1000 µM: @ 1 mM; for inhibition at 5000 µM: @ 5 mM

T1 sequence (P53341 whole entry): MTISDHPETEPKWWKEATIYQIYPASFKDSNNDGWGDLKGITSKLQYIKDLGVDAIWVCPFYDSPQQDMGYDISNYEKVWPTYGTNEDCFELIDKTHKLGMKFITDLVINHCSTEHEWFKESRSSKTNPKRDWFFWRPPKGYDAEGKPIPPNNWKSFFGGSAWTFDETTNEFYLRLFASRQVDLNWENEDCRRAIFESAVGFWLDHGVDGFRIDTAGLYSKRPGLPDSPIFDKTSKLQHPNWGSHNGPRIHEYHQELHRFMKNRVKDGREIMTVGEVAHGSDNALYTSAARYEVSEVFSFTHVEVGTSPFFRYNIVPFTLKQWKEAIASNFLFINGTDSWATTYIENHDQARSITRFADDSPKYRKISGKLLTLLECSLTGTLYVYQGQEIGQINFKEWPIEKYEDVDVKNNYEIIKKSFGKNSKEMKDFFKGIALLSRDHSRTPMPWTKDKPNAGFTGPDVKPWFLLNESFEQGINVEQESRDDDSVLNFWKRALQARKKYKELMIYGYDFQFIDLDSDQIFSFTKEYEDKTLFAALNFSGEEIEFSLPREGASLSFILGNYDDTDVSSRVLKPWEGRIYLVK

For `OC[C@H]1NC[C@H](O)[C@@H](F)[C@@H]1O` [Compound 1, 1,3-dideoxy-3-fluoronojirimycin], the inhibition at 1000 µM (yeast α-glucosidase) was 26%, the inhibition at 5000 µM (yeast α-glucosidase) was 63% and the “BETA GLUCOSIDASE-pH 4.8 inhibition” value (almond β-glucosidase [1]; @ 1 mM) was 4%. For the same compound, the “BETA GLUCOSIDASE-pH 4.8 inhibition” value (almond β-glucosidase [1]; @ 5 mM) was 10%, the “BETA GLUCOSIDASE-pH 7.4 inhibition” value (almond β-glucosidase [2]; @ 1 mM) was 3% and the “BETA GLUCOSIDASE-pH 7.4 inhibition” value (almond β-glucosidase [2]; @ 5 mM) was 24%. For the same compound, the inhibition at 1000 µM (ALPHA MANNOSIDASE [3]) was 11%, the inhibition at 5000 µM (ALPHA MANNOSIDASE [3]) was 19% and the inhibition at 1000 µM (ALPHA MANNOSIDASE [4]) was 10%. The inhibition at 5000 µM (ALPHA MANNOSIDASE [4]) was 30%.

In the case of `CCCCN1C[C@H](O)[C@@H](F)[C@H](O)[C@H]1CO` [Compound 2, N-butyl-1,3-dideoxy-3-fluoronojirimycin], the inhibition at 1000 µM (yeast α-glucosidase) was 11%, the inhibition at 5000 µM (yeast α-glucosidase) was 18% and the “BETA GLUCOSIDASE-pH 4.8 inhibition” value (almond β-glucosidase [1]; @ 1 mM) was 8%. The “BETA GLUCOSIDASE-pH 4.8 inhibition” value (almond β-glucosidase [1]; @ 5 mM) was -10%, the “BETA GLUCOSIDASE-pH 7.4 inhibition” value (almond β-glucosidase [2]; @ 1 mM) was 0% and the “BETA GLUCOSIDASE-pH 7.4 inhibition” value (almond β-glucosidase [2]; @ 5 mM) was 2%. For the same compound, the inhibition at 1000 µM (ALPHA MANNOSIDASE [3]) was 6%, the inhibition at 5000 µM (ALPHA MANNOSIDASE [3]) was 5% and the inhibition at 1000 µM (ALPHA MANNOSIDASE [4]) was 7%. For the same compound, the inhibition at 5000 µM (ALPHA MANNOSIDASE [4]) was 11%.
